The results in this text go back to ChEMBL document CHEMBL1135324, “Quaternary salts of E2020 analogues as acetylcholinesterase inhibitors for the reversal of neuromuscular block” (Bioorg Med Chem Lett, 2002).

Data set [1] is described as follows: Tested for water solubility of the compound. The format is ADME. The note with it: read-out: S.
The target in data set [2] is T1, Acetylcholinesterase (Homo sapiens, UniProt P22303).
The target in data set [3] is T1, Acetylcholinesterase. The source holds these as a separate data set.
Description: In vitro reversal of vecuronium-induced neuromuscular block in guinea pig hemi-diaphragm.
Data set [4] deals with Felis catus. Description: Mean arterial pressure change was detected in anaesthetised cats on administration of the compound. Note: test concentration or dose not given here. The format is functional, Artery.
The test system of data set [5] is Felis catus. Description: Change in response to vagal stimulation was detected in anaesthetised cats on administration of the compound. Note: test concentration or dose not given here. It counts as functional.
Data set [6] relates to Felis catus. Briefly: Effective dose required for the reversal of vecuronium-induced neuromuscular block in-vivo in Chloaralose anaesthetised cats. The format is functional.
Data set [7] relates to Felis catus. Briefly: Maximum reversal of vecuronium-induced neuromuscular block in-vivo in anaesthetised cats. The format is functional.
The test system of data set [8] is Felis catus. Briefly: Change in heart rate was detected in anaesthetised cats on administration of the compound. Note: test concentration or dose not given here. It counts as functional.
Data set [9] deals with Felis catus. Description: Maximum reversal of vecuronium-induced neuromuscular block in-vivo in anaesthetised cats at 1.28 umol/kg. The format is functional.
Data set [10] deals with T1, Acetylcholinesterase. Briefly: In vitro inhibition of human recombinant AChE.

pEC50, pIC50: −log10 of the molar value. A value given as a limit tells only on which side of the number the result lay.

T1 sequence (P22303 whole entry): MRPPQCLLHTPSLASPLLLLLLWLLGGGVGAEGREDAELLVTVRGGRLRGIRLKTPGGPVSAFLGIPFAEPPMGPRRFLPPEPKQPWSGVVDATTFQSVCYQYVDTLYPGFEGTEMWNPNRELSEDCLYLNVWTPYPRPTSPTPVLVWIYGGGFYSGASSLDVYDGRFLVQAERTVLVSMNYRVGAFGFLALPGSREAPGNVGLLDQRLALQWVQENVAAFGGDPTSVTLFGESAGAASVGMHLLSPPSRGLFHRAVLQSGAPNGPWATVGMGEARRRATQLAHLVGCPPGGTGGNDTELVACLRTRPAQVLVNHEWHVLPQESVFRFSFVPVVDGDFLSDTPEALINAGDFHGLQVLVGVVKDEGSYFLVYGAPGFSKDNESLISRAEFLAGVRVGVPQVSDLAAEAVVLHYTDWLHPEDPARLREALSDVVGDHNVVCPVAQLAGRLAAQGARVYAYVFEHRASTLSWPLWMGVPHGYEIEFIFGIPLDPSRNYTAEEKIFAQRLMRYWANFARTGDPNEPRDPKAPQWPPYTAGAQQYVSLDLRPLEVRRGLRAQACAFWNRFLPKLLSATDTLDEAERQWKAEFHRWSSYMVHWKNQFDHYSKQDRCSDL

In the case of `C[N+]1(Cc2ccccc2)CCC(CCC(=O)c2ccc3c(c2)OCO3)CC1` (configuration not stated), the solubility in data set [1] amounted to 500 µg/mL. In addition, on Acetylcholinesterase [2], the pIC50 was 6.62. The pEC50 at Acetylcholinesterase [3] was 5.77.

The molecule `COc1cc2c(cc1OC)C(=O)C(C(O)C1CC[N+](Cc3ccccc3)(Cc3ccccc3)CC1)C2` (configuration not stated) showed a negative-log EC50 (pEC50) at Acetylcholinesterase [3] of 4.36.

Turning to `C[N+]1(Cc2ccccc2)CCC(CCC(=O)c2ccc3c(c2)CCCCO3)CC1` (configuration not stated), the solubility in [1] worked out at 5000 µg/mL. Moreover, on Acetylcholinesterase [2], the pIC50 is 6.86.

`COc1cc2c(cc1OC)C(=O)[C@@H]([C@@H](O)C1CC[N+](C)(Cc3ccccc3)CC1)C2` (some centres not stated) had a negative-log EC50 (pEC50) on Acetylcholinesterase [3] of 5.57.

As for `COc1cc2c(cc1OC)C(=O)C(CC1CC[N+](C)(Cc3ccccc3)CC1)C2` (configuration not stated), the MAP with Felis catus [4] is on record as -22 delta %. For the same molecule, the Vagus in the data set with Felis catus [5] is 37 delta %. In addition, the ED50 with Felis catus [6] is around 0.06 µmol/kg. Moreover, the Max rev in the data set on Felis catus [7] was found to be 131%. Moreover, in the data set with Felis catus [8], the HR was determined as 11 delta %. For the same molecule, the pIC50 at Acetylcholinesterase [2] was 7.60. The molecule further had a pEC50 at Acetylcholinesterase [3] of 7.00.

For `C[N+]1(Cc2ccccc2)CCC(CCC(=O)c2ccc3c(c2)NCCCC3)CC1` (configuration not stated), the MAP in the data set on Felis catus [4] is -6 delta %. The same molecule gave a Vagus in the data set on Felis catus [5] of 10 delta %. Further, the ED50 in the data set with Felis catus [6] was determined as 0.15 µmol/kg. Moreover, the Max rev with Felis catus [7] is recorded as 140%. Also, in the data set with Felis catus [8], the HR was determined as 4 delta %. This molecule also gave a pIC50 against Acetylcholinesterase [2] above 6.30. Also, at Acetylcholinesterase [3], the pEC50 was 6.48.

Turning to `COc1cc2cc(C(=O)CCC3CC[N+](C)(Cc4ccccc4)CC3)n(C)c2cc1OC` (configuration not stated), the solubility in data set [1] turned out to be 1200 µg/mL. At Acetylcholinesterase [2], the pIC50 is 6.92. In addition, on Acetylcholinesterase [3], the pEC50 was 5.80.

As for `CC1=CC2Cc3[nH]c(=O)ccc3C3(C1)C2CCCN3C` (configuration not stated), the pIC50 against Acetylcholinesterase [2] is below 4.00. This molecule showed a pEC50 on Acetylcholinesterase [3] below 5.00.

For the molecule `COc1ccc2c3c1OC1C[C@@H](O)C=C[C@@]31CC[N+](C)(C)C2` (some centres not stated), the MAP in the data set on Felis catus [4] came out at 16 delta %. In the data set on Felis catus [5], this molecule registered a Vagus of 80 delta %. For the same molecule, the ED50 with Felis catus [6] turned out to be 0.1 µmol/kg. Also, the Max rev with Felis catus [7] came out at 130%. Moreover, in the data set with Felis catus [8], the HR was -5 delta %. Moreover, the pIC50 at Acetylcholinesterase [2] was around 6.30. Besides, the pEC50 at Acetylcholinesterase [3] was 6.20.

Turning to `C[N+]1(Cc2ccccc2)CCC(CCC(=O)c2ccc3c(c2)OCCO3)CC1` (configuration not stated), the solubility in data set [1] was below 500 µg/mL. This molecule had a pIC50 against Acetylcholinesterase [2] of 7.00. This molecule gave a pEC50 on Acetylcholinesterase [3] below 5.52.

On to `C[N@+]1(Cc2ccccc2)CC[C@H](CCC(=O)c2ccc3c(c2)CCO3)CC1`, for which the solubility in data set [1] is above 10000 µg/mL. Also, the negative logarithm of the IC50 (pIC50) at Acetylcholinesterase [2] is 7.18.

At Acetylcholinesterase [3], `COc1cc2c(cc1OC)C(=O)/C(=C/c1cc[n+](Cc3ccccc3)cc1)C2` gave a pEC50 of 7.92.

Take `Cc1cc(C(=O)CCC2CC[N+](C)(Cc3ccccc3)CC2)nn1-c1ccccc1` (configuration not stated): in data set [1], the solubility is 2000 µg/mL. On Acetylcholinesterase [2], this molecule showed a negative logarithm of the IC50 (pIC50) of 7.66. On Acetylcholinesterase [3], this molecule showed a pEC50 of 6.37.

Take `COc1cc2cc(C(=O)CCC3CC[N+](C)(Cc4ccccc4)CC3)sc2cc1OC` (configuration not stated): in [1], the solubility turned out to be 2000 µg/mL. This molecule had a negative logarithm of the IC50 (pIC50) against Acetylcholinesterase [2] of 8.10. For the same molecule, the pEC50 at Acetylcholinesterase [3] was 7.72.

For `C[N+]1(Cc2ccccc2)CCC(CCC(=O)c2ccc3c(c2)CCO3)CC1` (configuration not stated), in data set [1], the solubility is 1500 µg/mL. At Acetylcholinesterase [2], this molecule showed a pIC50 of 7.77. In addition, the pEC50 at Acetylcholinesterase [3] is 7.05.

`COc1cc2c(cc1OC)C(=O)[C@@H]([C@H](O)C1CC[N+](C)(Cc3ccccc3)CC1)C2` (some centres not stated) gave a pEC50 on Acetylcholinesterase [3] of 6.05.

Regarding `COc1cc2c(cc1OC)C(=O)C(Cc1cc[n+](Cc3ccccc3)cc1)C2` (configuration not stated), the pEC50 at Acetylcholinesterase [3] is 7.00. This pEC50 lies 0.95 log units higher than the previous one.

Take `COc1ccc2cc(C(=O)CCC3CC[N+](C)(Cc4ccccc4)CC3)ccc2c1` (configuration not stated): in data set [1], the solubility is below 1000 µg/mL. This molecule showed a pIC50 against Acetylcholinesterase [2] of 7.30. The molecule also gave a pEC50 on Acetylcholinesterase [3] of 6.28.

Consider `COc1cc2c(cc1OC)C(=O)C(C(O)C1CC[N+](C)(Cc3ccccc3)CC1)C2` (configuration not stated), for which, in the data set on Felis catus [4], the MAP was -22 delta %. In addition, the Vagus with Felis catus [5] came to 18 delta %. Besides, in the data set on Felis catus [6], the ED50 stood at 0.21 µmol/kg. Further, the Max rev in the data set on Felis catus [9] turned out to be 109%. In addition, the HR in the data set with Felis catus [8] is on record as -12 delta %. At Acetylcholinesterase [3], this molecule showed a pEC50 of 5.84.

`COc1cc2c(cc1OC)C(=O)C(C(O)c1cc[n+](Cc3ccccc3)cc1)C2` (configuration not stated) had a pEC50 on Acetylcholinesterase [3] of 5.73.

With `COc1cc2c(cc1OC)C(=O)C(CC1CCN(Cc3ccccc3)CC1)C2` (configuration not stated) [DONEPEZIL], the MAP in the data set with Felis catus [4] is -12 delta %. Further, in the data set on Felis catus [5], the Vagus was determined as 14 delta %. Besides, the ED50 in the data set with Felis catus [6] came to 0.53 µmol/kg. Moreover, in the data set on Felis catus [7], the Max rev was determined as 106%. Moreover, in the data set with Felis catus [8], the HR is -12 delta %.

With `CC1=C[C@H]2Cc3[nH]c(=O)ccc3[C@]3(C1)NCCC[C@H]23` [HUPERZINE B], the pIC50 at Acetylcholinesterase [10] was 7.52. Moreover, in the data set on Felis catus [4], the MAP is recorded as -17 delta %. The same molecule returned a Vagus with Felis catus [5] of 102 delta %. Also, the ED50 in the data set on Felis catus [6] came out at 0.08 µmol/kg. For the same molecule, in the data set with Felis catus [7], the Max rev was 156%. In the data set with Felis catus [8], the HR is listed as -8 delta %. The pEC50 on Acetylcholinesterase [3] is 7.72.

For the molecule `O=C(CCC1CCN(Cc2ccccc2)CC1)c1ccc2c(c1)NCCCC2` [ZANAPEZIL], the MAP in the data set with Felis catus [4] is reported as -11 delta %. Besides, the Vagus with Felis catus [5] was 8 delta %. For the same molecule, the ED50 in the data set on Felis catus [6] stood at 3.7 µmol/kg. Besides, in the data set on Felis catus [7], the Max rev came to 68%. In addition, the HR in the data set with Felis catus [8] was -5 delta %.
